In US20240400553A1, “AMINE BASED MATRIPTASE 2 INHIBITORS AND USES THEREOF” (Disc Medicine, Inc., priority 2023, published 2024):

Biological target: T1, Human Recombinant Matriptase 2 (Homo sapiens, UniProt Q8IU80)
T1 construct: made in house
T1 sequence (Q8IU80 1-811): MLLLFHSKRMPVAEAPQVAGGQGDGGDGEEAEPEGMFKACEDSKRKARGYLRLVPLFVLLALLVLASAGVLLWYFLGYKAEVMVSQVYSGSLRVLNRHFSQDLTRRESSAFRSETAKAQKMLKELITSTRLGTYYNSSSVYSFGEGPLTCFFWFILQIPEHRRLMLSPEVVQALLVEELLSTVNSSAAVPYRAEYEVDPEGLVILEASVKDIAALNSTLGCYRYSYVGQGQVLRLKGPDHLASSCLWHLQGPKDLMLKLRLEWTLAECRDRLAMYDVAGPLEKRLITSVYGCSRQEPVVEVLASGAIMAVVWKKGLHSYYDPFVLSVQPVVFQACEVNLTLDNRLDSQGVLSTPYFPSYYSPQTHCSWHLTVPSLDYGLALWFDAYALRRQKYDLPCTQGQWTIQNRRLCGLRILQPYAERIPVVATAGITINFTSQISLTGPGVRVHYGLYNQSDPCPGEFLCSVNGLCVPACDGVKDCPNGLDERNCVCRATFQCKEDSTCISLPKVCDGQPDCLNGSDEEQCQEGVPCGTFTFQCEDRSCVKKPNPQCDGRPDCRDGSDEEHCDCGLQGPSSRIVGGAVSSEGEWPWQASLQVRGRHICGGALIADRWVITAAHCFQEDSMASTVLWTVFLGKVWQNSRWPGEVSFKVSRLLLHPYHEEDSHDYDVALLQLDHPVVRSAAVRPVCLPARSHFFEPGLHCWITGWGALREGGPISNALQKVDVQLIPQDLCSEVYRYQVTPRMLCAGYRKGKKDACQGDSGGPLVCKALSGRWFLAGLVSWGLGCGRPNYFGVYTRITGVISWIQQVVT
Assay: Matriptase 2 inhibition, fluorescence based assay (Method I)
Type: biochemical
Settings: Table A; Ki of Matriptase-2; read-out: Mat-2 Ki
In short: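 In-house recombinant enzyme (3.5 nM), preincubated 30 min with compound, then Boc-Gln-Ala-Arg-AMC substrate (62 μM) in 50 mM Tris pH 7.5, 150 mM NaCl, 0.01% gelatin, 1% DMSO, 25 °C. Fluorescence (Ex 360/Em 480 nm) read 60 min after substrate; IC50 from variable-slope sigmoidal fit of % inhibition.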

Row | Compound | Ki
1 | NCc1ccc2cc(C(=O)OCCN(Cc3ccccc3)CC3CC3)n(Cc3cc(NS(=O)(=O)Cc4ccccc4)cc4ccccc34)c2n1 [Compound 136, 2-[benzyl(cyclopropyl-methyl)amino]ethyl 6-(aminomethyl)-1-{[3-(phenylmethanesulfon-amido)naphthalen-1-yl]-methyl}-1H-pyrrolo[2,3-b]pyridine-2-carboxylate] | 500 to 3000 nM
2 | NCc1ccc2cc(C(=O)OCCF)n(Cc3cc(NS(=O)(=O)Cc4ccccc4)cc4ccccc34)c2n1 [Compound 105, 2-fluoroethyl 6-(amino-methyl)-1-{[3-(phenyl-methanesulfonamido)-naphthalen-1-yl]methyl}-1H-pyrrolo[2,3-b]pyr-idine-2-carboxylate] | 100 to 500 nM
3 | NCc1ccc2cc(C(=O)OCCCN3CCOCC3)n(Cc3cc(NS(=O)(=O)Cc4ccccc4)cc4ccccc34)c2n1 [Compound 133, 3-(morpholin-4-yl)prop-yl 6-(aminomethyl)-1-{[3-(phenylmethanesul-fonamido)naphthalen-1-ylmethyl}-1H-pyrrolo-[2,3-b]pyridine-2-car-boxylate] | 100 to 500 nM
4 | COC(=O)c1cc2ccc(CN)nc2n1Cc1cc(NS(=O)(=O)Cc2ccccc2)cc2ccccc12 [Compound 116, methyl 6-(aminomethyl)-1-{[3-(phenylmethane-sulfonamido)naphthalen-1-yl]methyl}-1H-pyrrolo-[2,3-b]pyridine-2-car-boxylate] | 500 to 3000 nM
5 | CCN1CCC(COC(=O)c2cc3ccc(CN)nc3n2Cc2cc(NS(=O)(=O)Cc3ccccc3)cc3ccccc23)CC1 [Compound 13, (1-ethylpiperidin-4-yl)-methyl 6-(aminomethyl)-1-{[3-(phenylmethane-sulfonamido)naphthalen-1-yl]methyl}-1H-pyr-rolo[2,3-b]pyridine-2-carboxylate] | ≤ 100 nM
6 | N#Cc1ccc(OC(=O)c2cc3ccc(CN)nc3n2Cc2cc(NS(=O)(=O)Cc3ccccc3)cc3ccccc23)cc1 [Compound 125, 4-cyanophenyl 6-(aminomethyl)-1-{[3-(phenylmethanesulfon-amido)naphthalen-1-yl]-methyl}-1H-pyrrolo-[2,3-b]pyridine-2-car-boxylate] | 500 to 3000 nM
7 | CCOC(=O)c1cc2ccc(CN)nc2n1Cc1cc(NS(=O)(=O)Cc2ccccc2)cc2ccccc12 [Compound 115, ethyl 6-(aminomethyl)-1-{[3-(phenylmethanesul-fonamido)naphthalen-1-yl]methyl}-1H-pyrrolo-[2,3-b]pyridine-2-car-boxylate] | 500 to 3000 nM
8 | NCc1ccc2cc(C(=O)OCc3cccnc3)n(Cc3cc(NS(=O)(=O)Cc4ccccc4)cc4ccccc34)c2n1 [Compound 81, (pyridin-3-yl)methyl 6-(aminomethyl)-1-{[3-(phenylmethanesulfon-amido)naphthalen-1-yl]-methyl}-1H-pyrrolo[2,3-b]pyridine-2-carboxylate] | ≤ 100 nM
9 | CN1CCC(COC(=O)c2cc3ccc(CN)nc3n2Cc2cc(NS(=O)(=O)Cc3sccc3F)cc3ccccc23)CC1 [Compound 147, (1-methylpiperidin-4-yl)-methyl 6-(aminomethyl)-1-({3-[(3-fluorothiophen-2-yl)methanesulfon-amido]naphthalen-1-yl}-methyl)-1H-pyrrolo[2,3-b]pyridine-2-carboxylate] | ≤ 100 nM
10 | CN(CCOC(=O)c1cc2ccc(CN)nc2n1Cc1cc(NS(=O)(=O)Cc2ccccc2)cc2ccccc12)c1ccccc1 [Compound 126, 2-[methyl(phenyl)-amino]ethyl 6-(amino-methyl)-1-{[3-(phenyl-methanesulfonamido)-naphthalen-1-yl]methyl}-1H-pyrrolo[2,3-b]pyr-idine-2-carboxylate] | 500 to 3000 nM

Same assay, conditions: Table A; Ki of Matriptase-2 given as class symbols; read-out: Mat-2 Ki

Row | Compound | Ki
11 | Cc1cccc(CS(=O)(=O)Nc2cc(Cn3c(C(=O)O)cc4ccc(CN)nc43)c3ccccc3c2)c1 [Compound 238, 6-(aminomethyl)-1-({3-[(3-methylphenyl)meth-anesulfonamido]naph-thalen-1-yl}methyl)-1H-pyrrolo[2,3-b]pyridine-2-carboxylic acid] | 100 to 500 nM
12 | NCc1ccc2cc(C(=O)O)n(Cc3cc(NS(=O)(=O)[C@H]4CCOC4)cc4ccccc34)c2n1 [Compound 280, 6-(aminomethyl)-1-({3-[(3S)-oxolane-3-sulfon-amido]naphthalen-1-yl}-methyl)-1H-pyrrolo[2,3-b]pyridine-2-carboxylic acid] | 500 to 3000 nM
13 | CCN1C[C@@H](S(=O)(=O)Nc2cc(Cn3c(C(=O)O)cc4ccc(CN)nc43)c3ccccc3c2)CC1=O (racemic) [Compound 282, rac-6-(aminomethyl)-1-({3-[(3R)-1-ethyl-5-oxopyrrolidine-3-sulfon-amido]naphthalen-1-yl}-methyl)-1H-pyrrolo[2,3-b]pyridine-2-carboxylic acid] | 500 to 3000 nM
14 | CCOC(=O)c1cc2ccc(CNC(=O)c3ccccc3COC(C)=O)nc2n1Cc1cc(NS(=O)(=O)Cc2ccccc2)cc2ccccc12 [Compound 358, ethyl 6-[({2-[(acetyl-oxy)methyl]phenyl}-formamido)methyl]-1-{[3-(phenylmethane-sulfonamido)naphthalen-1-yl]methyl}-1H-pyr-rolo[2,3-b]pyridine-2-carboxylate] | 500 to 3000 nM
15 | C[C@@H](c1ccccc1)S(=O)(=O)Nc1cc(Cn2c(C(=O)OCC3CCN(C)CC3)cc3ccc(CN)cc32)c2ccccc2c1 [Compound 387, (1-methylpiperidin-4-yl)-methyl 6-(aminomethyl)-1-({3-[(1S)-1-phenyl-ethanesulfonamido]-naphthalen-1-yl}methyl)-1H-indole-2-carboxylate] | 100 to 500 nM
16 | CN1CCO[C@@H](COC(=O)Nc2cc(Cn3c(C(=O)O)cc4ccc(CN)nc43)c3ccccc3c2)C1 (racemic) [Compound 337, 6-(aminomethyl)-1-{[3-({[(4-methylmorpholin-2-yl)methoxy]carbon-yl}amino)naphthalen-1-yl]methyl}-1H-pyrrolo-[2,3-b]pyridine-2-car-boxylic acid] | 100 to 500 nM
17 | C[C@@H]1CN(C(=O)Nc2cc(Cn3c(C(=O)O)cc4ccc(CN)nc43)c3ccccc3c2)CCN1 [Compound 295, 6-(aminomethyl)-1-[(3-{[(3R)-3-methylpipera-zine-1-carbonyl]amino}-naphthalen-1-yl)methyl]-1H-pyrrolo[2,3-b]pyr-idine-2-carboxylic acid] | 500 to 3000 nM
18 | CS(=O)(=O)N1CCC(CNC(=O)Nc2cc(Cn3c(C(=O)O)cc4ccc(CN)cc43)c3ccccc3c2)CC1 [Compound 397, 6-(aminomethyl)-1-{[3-({[(1-methanesulfonyl-piperidin-4-yl)methyl]-carbamoyl}amino)naph-thalen-1-yl]methyl}-1H-indole-2-carboxylic acid] | 100 to 500 nM
19 | COCCN1CCN(C(=O)Nc2cc(Cn3c(C(N)=O)cc4ccc(CN)nc43)c3ccccc3c2)CC1 [Compound 344, 6-(aminomethyl)-1-((3-(4-(2-methoxyethyl)piperazine-1-carboxamido)naphthalen-1-yl)methyl)-1H-pyrrolo[2,3-b]pyridine-2-carboxamide] | 100 to 500 nM

Same assay, conditions: Table B; Human Recombinant Matriptase 2, 3.5 nM enzyme, 62 μM substrate, 30 mins preincubation; read-out: Mean Ki

Row | Compound | Ki
20 | CN1CCC(CCOC(=O)c2cc3ccc(CN)nc3n2Cc2cc(NS(=O)(=O)Cc3ccccc3)cc3c2CCCC3)CC1 [Compound 2.15] | ≤ 100 nM
21 | CB1C=Cc2c(Cn3c(C(=O)OCC4CCN(C)CC4)cc4ccc(CN)nc43)cc(Br)cc2N1 [Compound 2.31] | 500 to 3000 nM
